The values below come from US4177271A, “Hydroxy- and oxo-substituted α-benzylidenylcycloalkanes” (Unicler, priority 1977, dated 1979).

The structures appear in SMILES notation. Where only a bound is given, the exact number is not on record here.

Data set [1] can be described thus: Acute toxicity (LD50), mice, intraperitoneal route, Log-Probits method of Miller and Tainter. Conditions: mouse, in vivo, ip. The class given is in vivo. As to the method:
(§1) The LD50 of the products was determined in mice by the intraperitoneal route according to the "Log-Probits" method of Miller and Tainter (Proc. Soc. Exptl. Biol. Med. 1944; 57, 261-264).

Data set [2] concerns hexobarbital-induced narcosis. Briefly: Modification (potentialisation) of hexobarbital-induced narcosis in mice. The class given is in vivo. Conditions: Mus musculus, sodium hexobarbital 70 mg/kg IP half an hour later, read-out: Narcosis potentialisation, T (percentage increase in sleep time induced by hexobarbital); for change in vivo at 100 mg/kg: 100 mg/kg IP; for change in vivo at 200 mg/kg: 200 mg/kg IP; for change in vivo at 10 mg/kg: 10 mg/kg IP. On the procedure:
(§2) This was investigated by observing the behaviour of the animal by studying the modification in hexobarbital-induced narcosis and antagonism vis-a-vis reserpine.
Mice, each weighing about 20 g, received intraperitoneally the product being investigated. Half an hour later sodium hexobarbital was injected by the same route at a dosage of 70 mg/kg.
The animals were placed on a hot plate maintained at a constant temperature of 27° C. Sleep is considered to have occurred as soon as a mouse, placed in the dorsal decubitus position, is incapable of turning over onto its paws.
The narcosis potentialisation is evaluated from the percentage increase in sleep time induced by hexobarbital (T).

The next data set deals with central nervous system. Briefly: Activity on the central nervous system (overall conclusion). Set-up: species or system mice. The following applies: mouse, in vivo.
Text: as §2

Data set [3] relates to blepharospasm produced by reserpine. Briefly: Antagonism vis-a-vis reserpine (blepharospasm) in mice. Type of data set: in vivo, Swiss male mice. The following applies: reserpine 5 mg/kg IP. Set-up: key: The inhibition of blepharospasm is recorded from 0 to +++; The inhibition of blepharospasm is recorded from 0 to +++. On the procedure: as §2
(Chen G., and Bohner B., (1961) J. pharmacol Exptl. Therap. 131, 179).
Reserpine when administered intraperitoneally to mice in a dosage of 5 mg/kg causes the eyelids to close more or less completely in the majority of animals. The administration of certain products will inhibit the blepharospasm produced by reserpine.
Swiss male mice are distributed into groups of 10 mice, and each experiment includes at least 3 groups:
a control group that receives only the solvent and reserpine
a group treated with a reference product (we chose Imipramine)
a treated group that receives the product being tested.
The products under investigation are administered intraperitoneally at 30 minutes or 2 hours before intraperitoneal injection of reserpine in a dosage of 5 mg/kg, so as to study their activity as a function of time.
The degree of ptosis for each eye and each animal is observed every 30 minutes for 4 to 5 hours, using RUBIN's score method. The activity of the product is determined by comparison with the result obtained with the treated control group. The inhibition of blepharospasm is recorded from 0 to +++.

Another data set has as its system mice. Nature of the data set: Acute toxicity (LD50), mice, intraperitoneal route, Log-Probits method of Miller and Tainter. The class given is in vivo. On the procedure: as §1

The term LD50 denotes the dose at which mortality reaches 50%. As to `CC1CCCC(=Cc2ccc3c(c2)OCO3)C1O` (centres unmarked) [Code No. 1040, 2-(3,4-methylenedioxybenzylidene)-6-methylcyclohexanol or 2-piperonylidene-6-methylcyclohexanol], the 50% lethal dose (LD50) in data set [1] was 1000 mg/kg. The change in vivo at 100 mg/kg in data set [2] was determined as 174%. For the same compound, the “usefulness as an anti-depressant” value with central nervous system is on record as “particularly useful as an anti-depressant”.

In data set [1], `CC1CCCC(=Cc2ccc3c(c2)OCO3)C1=O` (centres unmarked) [compound 993] had an LD50 of 2000 mg/kg. The change in vivo at 200 mg/kg in data set [2] came to 385%. Also, in data set [3] (200 mg/kg IP), the “Blepharospasm (inhibition)” value was 0.

The compound `CC1CCC(=O)C(=Cc2ccc3c(c2)OCO3)C1` (centres unmarked) [compound 994] came in with an LD50 in data set [1] of 2000 mg/kg. Moreover, the change in vivo at 200 mg/kg in data set [2] came to 103%. In addition, the “Blepharospasm (inhibition)” value in data set [3] (200 mg/kg IP) is 0.

As for `CC1CC(=Cc2ccc3c(c2)OCO3)C(=O)C(=Cc2ccc3c(c2)OCO3)C1` (centres unmarked) [compound 1059], the “DL0 (IP)” value in the data set on mice is recorded as no less than 2000 mg/kg. The change in vivo at 200 mg/kg in data set [2] is 0%. Further, the “Blepharospasm (inhibition)” value in data set [3] (200 mg/kg IP) came out at 0.

With `COc1ccc(C=C2CCCC(C)C2=O)cc1OC` (centres unmarked) [compound 1266], the LD50 in data set [1] stood at 700 mg/kg. The change in vivo at 70 mg/kg in data set [2] (70 mg/kg IP) stood at 0%. In addition, in data set [3] (70 mg/kg IP), the “Blepharospasm (inhibition)” value came out at 0.

For `COc1ccc(C=C2CCCC(C)C2O)cc1OC` (centres unmarked) [compound 1267], in data set [1], the median lethal dose (LD50) is 900 mg/kg.

Compound `COc1cc(C=C2CCCC(C)C2=O)cc(OC)c1OC` (centres unmarked) [compound 1268] yielded a median lethal dose (LD50) in data set [1] of 1000 mg/kg. In addition, the change in vivo at 100 mg/kg in data set [2] came to 60%.

Compound `COc1cc(C=C2CCCC(C)C2O)cc(OC)c1OC` (centres unmarked) [compound 1269] returned a median lethal dose (LD50) in data set [1] of 1100 mg/kg. The change in vivo at 110 mg/kg in data set [2] (110 mg/kg IP) amounted to 66%. Further, the “Blepharospasm (inhibition)” value in data set [3] (110 mg/kg IP) stood at 0.

Turning to `COc1ccc(C=C2CCCC(C)C2=O)c(OC)c1OC` (centres unmarked) [compound 1270], in data set [1], the LD50 turned out to be 1000 mg/kg.

Take `COc1ccc(C=C2CCCC(C)C2O)c(OC)c1OC` (centres unmarked) [compound 1271]: the median lethal dose (LD50) in data set [1] came to 500 mg/kg. Moreover, the change in vivo at 50 mg/kg in data set [2] (50 mg/kg IP) is 0%. Moreover, in data set [3] (50 mg/kg IP), the “Blepharospasm (inhibition)” value stood at 0.

On to `CC1CCCC(=Cc2cc3c(cc2Cl)OCO3)C1=O` (centres unmarked) [compound 1274], for which the “DL0 (IP)” value with mice is reported as no less than 2000 mg/kg. For the same compound, in data set [2], the change in vivo at 200 mg/kg is 99%.

`CC1CCCC(=Cc2cc3c(cc2Cl)OCO3)C1O` (centres unmarked) [compound 1275]: the LD50 in data set [1] came to 2000 mg/kg. The change in vivo at 200 mg/kg in data set [2] is 56%. Also, the “Blepharospasm (inhibition)” value in data set [3] (200 mg/kg IP) is listed as 0.

With `O=C1C(=Cc2ccc3c(c2)OCO3)Cc2ccccc21` [compound 1292], in the data set with mice, the “DL0 (IP)” value is on record as no less than 2000 mg/kg. Besides, in data set [2], the change in vivo at 200 mg/kg was 62%. For the same compound, in data set [3] (200 mg/kg IP), the “Blepharospasm (inhibition)” value was found to be 0.

On to `O=C1C(=Cc2ccc3c(c2)OCO3)CCc2ccccc21` [compound 1293], for which, in the data set with mice, the “DL0 (IP)” value is no less than 2000 mg/kg. In addition, the change in vivo at 200 mg/kg in data set [2] turned out to be 30%. In data set [3] (200 mg/kg IP), the “Blepharospasm (inhibition)” value is listed as 0.

Take `OC1C(=Cc2ccc3c(c2)OCO3)Cc2ccccc21` (centres unmarked) [compound 1322]: in data set [1], the LD50 came out at 1500 mg/kg. In data set [2] (150 mg/kg IP), the change in vivo at 150 mg/kg is 116%. Also, the “Blepharospasm (inhibition)” value in data set [3] (150 mg/kg IP) was found to be 0.

Consider `CN1CC(=Cc2ccc3c(c2)OCO3)C(O)C(=Cc2ccc3c(c2)OCO3)C1` (centres unmarked) [compound 1324], for which, in the data set on mice, the “DL0 (IP)” value is on record as no less than 2000 mg/kg. Further, in data set [2], the change in vivo at 200 mg/kg was 83%. Further, the “Blepharospasm (inhibition)” value in data set [3] (200 mg/kg IP) was 0.

Compound `OC1C(=Cc2ccc3c(c2)OCO3)CCCC1CN1CCOCC1` (centres unmarked) [compound 1347] returned an LD50 in data set [1] of 1000 mg/kg. For the same compound, the change in vivo at 100 mg/kg in data set [2] stood at 60%.

`CN(C)CC1(C)CCCC(=Cc2ccc3c(c2)OCO3)C1O` (centres unmarked) [compound 1349] displayed an LD50 in data set [1] of 100 mg/kg. In data set [2], the change in vivo at 10 mg/kg came out at 10%.

`CN1CCN(CC2(C)CCCC(=Cc3ccc4c(c3)OCO4)C2=O)CC1` (centres unmarked) [compound 1352] came in with a median lethal dose (LD50) in data set [1] of 150 mg/kg. In data set [2] (15 mg/kg IP), the change in vivo at 15 mg/kg amounted to 0%. The “Blepharospasm (inhibition)” value in data set [3] (15 mg/kg IP) was 0.

As for `O=C1CCCC1=Cc1ccc2c(c1)OCO2` [compound 1386], the LD50 in data set [1] was found to be 1300 mg/kg. The change in vivo at 130 mg/kg in data set [2] (130 mg/kg IP) amounted to 190%. The “Blepharospasm (inhibition)” value in data set [3] (130 mg/kg IP) worked out at 0.

As to `OC1CCCC1=Cc1ccc2c(c1)OCO2` (centres unmarked) [compound 1387], the median lethal dose (LD50) in data set [1] turned out to be 100 mg/kg. Moreover, the change in vivo at 10 mg/kg in data set [2] was determined as 40%. Moreover, the “Blepharospasm (inhibition)” value in data set [3] (10 mg/kg IP) is 0.

On to `OC1C(=Cc2ccc3c(c2)OCO3)CCc2ccccc21` (centres unmarked) [compound 1388], for which the “DL0 (IP)” value with mice is recorded as greater than 200 mg/kg. For the same compound, the change in vivo at 200 mg/kg in data set [2] was found to be 10%. In addition, the “Blepharospasm (inhibition)” value in data set [3] (200 mg/kg IP) was 0.

On to `CC1CCC(O)C(=Cc2ccc3c(c2)OCO3)C1` (centres unmarked) [compound 1446], for which, in data set [1], the 50% lethal dose (LD50) was 1500 mg/kg.
